Laboratory results from patent publication US5621010A, “Urea derivatives and their use as ACAT inhibitors” (Nisshin Flour Milling Co., Ltd., priority 1993, dated 1997).

Tests used:
[1] = tested on: ACAT (liver microsome fractions of male rabbits); experiment: ACAT inhibitory activity: formation of labelled cholesteryl esters from [1-14C]oleoyl-CoA and endogenous cholesterol; type: biochemical, rabbit; conditions: compound added at 10^-7 M
Procedure: The enzyme preparation, ACAT was prepared from liver microsme fractions of male rabbits according to the method of E. E. Largis et al. (Journal of Lipid Research, Vol. 30, pages 681-690, 1989). The activity was calculated by assaying the amount of the labelled cholesteryl esters formed from [1-^14 C]oleoyl-CoA and endogenous cholesterol according to the method of Kazuichi NATORI et al. (Japan J. Pharmacol., Vol. 42, pages 517-523, 1986).
The result is shown in Table 1, in which percent inhibition of the formation of the labelled cholesteryl esters with a compound added at 10^-7 M is indicated as index for the ACAT inhibitory activity.

Human LDL = experiment: Antioxidative activity: inhibition of MDA formation from LDL incubated with cupric sulfate; type: biochemical; conditions: compound 10^-5 M; cupric sulfate 5×10^-6 M; 5 hrs; compared with control
Procedure: Human LDL was incubated in the presence of cupric sulfate (5×10^-6 M) and in the presence or absence of a compound (10^-5 M) for 5 hrs. After the incubation, the peroxidation of low-density lipoproteins (LDL) is evaluated by the formation of malondialdehyde (MDA), which is a sort of lipid peroxides according to the method of Simon J. T. Mao et al. (J. Med. Chem., Vol. 34, pages 298-302, 1991). Activity of the compound is shown by percent inhibition of the MDA formation as compared with control.

[2] = Cholesterol-lowering activity in hypercholesteremic rats; type: in vivo, Sprague-Dawley male rats; conditions: 30 mg/kg oral, in 0.5% methylcellulose; plasma cholesterol prior to and 5 hrs after administration
Procedure: Sprague-Dawley male rats were given a powdery feed containing 1% cholesterol and 0.5% cholic acid in an amount of 15 g per day per animal for 3 days to produce hypercholesteremic rats. Four days later, a compound suspended in 0.5% methylcellulose was administered orally at a dose of 30 mg/kg. Blood was drawn prior to and 5 hrs after the administration of the compound, for which the plasma cholesterol level was measured using a commercially available assay kit (Cholesterol E Test Wako, Wako Junyaku K.K.).

Compound | ACAT Inhibition [1] | Antioxidant Activity (percent inhibition of the MDA formation) (Human LDL) | Percent Reduction of Cholesterol [2]
CC(C)(C)c1cc(CCc2ccccc2NC(=O)NC2CCN(Cc3ccccc3)CC2)cc(C(C)(C)C)c1O [Example 35, N-[2-(3,5-di-tert-butyl-4-hydroxyphenethyl)phenyl]-N'-(1-benzyl-4-piperidyl)urea] | 82% | 94% | 48.4%
CN(C(=O)Nc1ccccc1CCc1cc(C(C)(C)C)c(O)c(C(C)(C)C)c1)C1CCCCC1 [Example 43, N-[2-(3,5-di-tert-butyl-4-hydroxyphenethyl)phenyl]-N'-cyclohexyl-N'-methylurea] | 99% | 99% | –
CN(Cc1c2ccccc2cc2ccccc12)C(=O)Nc1ccccc1CCc1cc(C(C)(C)C)c(O)c(C(C)(C)C)c1 [Example 44, N-[2-(3,5-di-tert-butyl-4-hydroxyphenethyl)phenyl]-N'-(9-anthryl)methyl-N'-methylurea] | 90% | 94% | –
CC(C)(C)c1cc(CCc2ccccc2NC(=O)NC(C2CCCCC2)C2CCCCC2)cc(C(C)(C)C)c1O [Example 50, N-[2-(3,5-di-tert-butyl-4-hydroxyphenethyl)phenyl]-N'-(dicyclohexylmethyl)urea] | 88% | 90% | –
CC(C)(C)c1cc(CCc2ccccc2NC(=O)NC2CCC(C(C)(C)C)CC2)cc(C(C)(C)C)c1O (stereo not drawn) [Example 52, N-[2-(3,5-di-tert-butyl-4-hydroxyphenethyl)phenyl]-N'-(4-tert-butylcyclohexyl)urea] | 97% | 94% | –
CC(C)(C)c1cc(CCc2ccccc2NC(=O)NC2CCC(OCc3ccccc3)CC2)cc(C(C)(C)C)c1O (stereo not drawn) [Example 57] | 89% | 95% | –
CCOC(=O)[C@@H](NC(=O)Nc1ccccc1CCc1cc(C(C)(C)C)c(O)c(C(C)(C)C)c1)c1ccccc1 [Example 69, (S)-N-[2-(3,5-di-tert-butyl-4-hydroxyphenethyl)phenyl]-N'-(α-ethoxycarbonyl)benzylurea] | 96% | 95% | –
CC(C)(C)c1cc(CCc2ccccc2NC(=O)NC(C)(C)c2ccc(Cl)c(Cl)c2)cc(C(C)(C)C)c1O [Example 74, N-[2-(3,5-di-tert-butyl-4-hydroxyphenethyl)phenyl]-N'-[2-(3,4-dichlorophenyl)-2-propyl]urea] | 96% | 95% | –
CN(C)c1ccc(CCNC(=O)Nc2ccccc2CCc2cc(C(C)(C)C)c(O)c(C(C)(C)C)c2)cc1 [Example 75, N-[2-(3,5-di-tert-butyl-4-hydroxyphenethyl)phenyl]-N'-(4-dimethylaminophenethyl)urea] | 88% | 95% | –
CC(C)(C)c1cc(CCc2ccccc2NC(=O)NCC2(c3ccc4c(c3)OCO4)CCCC2)cc(C(C)(C)C)c1O [Example 76, N-[2-(3,5-di-tert-butyl-4-hydroxyphenethyl)phenyl]-N'-[[1-(3,4-methylenedioxyphenyl)cyclopentyl]methyl]urea] | 98% | 96% | –
CC(C)(C)c1cc(CCc2ccccc2NC(=O)NCC(C)(C)c2ccc(Cl)c(Cl)c2)cc(C(C)(C)C)c1O [Example 77, N-[2-(3,5-di-tert-butyl-4-hydroxyphenethyl)phenyl]-N'-[2-(3,4-dichlorophenyl)-2-methylpropyl]urea] | 96% | 95% | –
CC(C)(C)c1cc(CCc2ccccc2NC(=O)NC2CCN(Cc3ccc(F)cc3F)CC2)cc(C(C)(C)C)c1O [Example 80, N-[2-(3,5-di-tert-butyl-4-hydroxyphenethyl)phenyl]-N'-[1-(2,4-difluorobenzyl)-4-pyperidyl]urea] | 92% | 96% | –
CC(C)(C)c1cc(CCc2ccccc2NC(=O)NC2CCN(Cc3ccc(F)cc3)CC2)cc(C(C)(C)C)c1O [Example 83, N-[2-(3,5-di-tert-butyl-4-hydroxyphenethyl)phenyl]-N'-[1-(4-fluorobenzyl)-4-piperidyl]urea] | 96% | 96% | 44.6%
CC(C)(C)c1cc(CCc2ccccc2NC(=O)NC2CCN(Cc3ccc(C(F)(F)F)cc3C(F)(F)F)CC2)cc(C(C)(C)C)c1O [Example 85, N-[2-(3,5-di-tert-butyl-4-hydroxyphenethyl)phenyl]-N'-[1[-2,4-bis(trifluoromethyl)benzyl]-4-piperidyl]urea] | 97% | 94% | –
CC(C)(C)c1cc(CCc2ccccc2NC(=O)NCC2CCCCC2)cc(C(C)(C)C)c1O [Example 90, N-[2-(3,5-di-tert-butyl-4-hydroxyphenethyl)phenyl]-N'-(cyclohexylmethyl)urea] | 92% | 93% | –
CN(C(=O)Nc1ccccc1CCc1cc(C(C)(C)C)c(O)c(C(C)(C)C)c1)C1CCN(Cc2ccccc2)CC1 [Example 92, N-[2-(3,5-di-tert-butyl-4-hydroxyphenethyl)phenyl]-N'-(1-benzyl-4-piperidyl)-N'-methylurea] | 99% | 96% | 79.9%
CC(C)(C)CN1CCC(NC(=O)Nc2ccccc2CCc2cc(C(C)(C)C)c(O)c(C(C)(C)C)c2)CC1 [Example 97, N-[2-(3,5-di-tert-butyl-4-hydroxyphenethyl)phenyl]-N'-[1-(2,2-dimethylpropyl)-4-piperidyl]urea] | 89% | 96% | –
CN(C(=O)Nc1ccccc1CCc1cc(C(C)(C)C)c(O)c(C(C)(C)C)c1)C1CCCN(Cc2ccccc2)C1 (stereo not drawn) [Example 99, N-[2-(3,5-di-tert-butyl-4-hydroxyphenethyl)phenyl]-N'-(1-benzyl-3-piperidyl)-N'-methylurea] | 100% | 95% | –
CCCCCCCN(C)C(=O)Nc1ccccc1/C=C/c1cc(C(C)(C)C)c(O)c(C(C)(C)C)c1 [Example 105, N-[2-(3,5-di-tert-butyl-4-hydroxystyryl)phenyl]-N'-methyl-N'-heptylurea] | – | – | 45.9%
CC(C)(C)c1cc(CCc2cc(F)cc(F)c2NC(=O)NC2CCN(Cc3ccccc3)CC2)cc(C(C)(C)C)c1O [Example 108, N-[2-(3,5-di-tert-butyl-4-hydroxyphenethyl)-4,6-difluorophenyl]-N'-(1-benzyl-4-piperidyl)urea] | 97% | 93% | 71.8%
CC(C)(C)c1cc(CCc2ccccc2NC(=O)N2CCN(Cc3ccccc3)CC2)cc(C(C)(C)C)c1O [Example 114, 1-Benzyl-4-[N-[2-(3,5-di-tert-butyl-4-hydroxyphenethyl)phenyl]carbamoyl]piperazine] | 82% | 98% | –
CC(C)(C)c1cc(CCc2ccccc2NC(=O)N2CCC(Cc3ccccc3)CC2)cc(C(C)(C)C)c1O [Example 115, 4-Benzyl-1-[N-[2-(3,5-di-tert-butyl-4-hydroxyphenethyl)phenyl]carbamoyl]piperidine] | 87% | 98% | –
CC(C)(C)c1cc(CCc2ccccc2NC(=O)N2CCc3ccccc3C2)cc(C(C)(C)C)c1O [Example 117, 2-[N-[2-(3,5-di-tert-butyl-4-hydroxyphenethyl)phenyl]carbamoyl]-1,2,3,4-tetrahydroisoquinoline] | 91% | 97% | –
CC(C)(C)c1cc(CCc2ccccc2NC(=O)N2CCN(c3ccccc3)CC2)cc(C(C)(C)C)c1O [Example 124, 1-[N-[2-(3,5-di-tert-butyl-4-hydroxyphenethyl)phenyl]carbamoyl]-4-phenylpiperazine] | 81% | 95% | –
CC(C)(C)c1cc(CCc2ccccc2NC(=O)N2CCCC3CCCCC32)cc(C(C)(C)C)c1O (stereo not drawn) [Example 130, 1-[N-[2-(3,5-di-tert-butyl-4-hydroxyphenethyl)phenyl]carbamoyl]decahydroquinoline] | 99% | 95% | 71.5%
